SMILES | melting point
CCC1(CC)Cc2cc(OC)c(Cl)c(Cl)c2C1=O | 118 °C
CCOC(=O)C1=Cc2cc(Br)c(F)cc2OC1C(F)(F)F (configuration not stated) | 98.5 to 100 °C
CC1(C)C=C(c2cc(C#N)ccc2O)c2cc(C#N)ccc2O1 | 213 to 215 °C
Cc1ccc2nc(Cl)c(Cl)nc2c1 | 112 to 115 °C
Cc1c(SCCCSCCn2c([N+](=O)[O-])cnc2C)ccnc1CNc1ncncc1Cl | 119 to 121 °C
O=C(Nc1ccc(-n2nc(C(F)(F)F)cc2C(F)(F)F)cc1)c1c(Cl)ccc([N+](=O)[O-])c1Cl | 160 to 161 °C
CN(C)CCc1c[nH]c2ccc(CCC(=O)NCc3ccc(NS(C)(=O)=O)cc3)cc12 | 78 to 82 °C
N#CCCNC(=O)c1cccc(-c2cccc3c2CN(Cc2cccc(C(F)(F)F)c2)CC3)c1 | 114 to 117 °C
C/C=C/c1ccc2nc(Cl)c(S(N)(=O)=O)n2n1 | 225 to 229 °C
COc1ccc(C#CC(C)N(O)C(N)=O)cc1 (configuration not stated) | 144 to 146 °C
O=C1CCC2C=C(c3cccnc3)C(F)=CC2N1 (configuration not stated) | 228 °C
COC(=O)c1sccc1NC(C)=O | 93 to 95 °C
CC(C)(C)c1ccc(C(=O)Nc2cn3nc(-n4cnc(Br)c4)ccc3n2)cc1 | 306 to 307 °C
CCC(=O)NC1CCC(CNc2nc3c(s2)CCOc2ccccc2-3)CC1 (configuration not stated) | 70 to 73 °C
NC(C=CP(=O)(O)O)(CO)CCc1ccc(Sc2cccc(OCc3ccccc3)c2)cc1Cl (configuration not stated) | 245 to 248 °C
N[C@@H]1Cc2c(Br)ccc3c2[C@@H](C1)CN3C(=O)c1ccccc1 | 169 to 173 °C
O=C(NOC1CCCCO1)c1ccc(-c2ccc3ncnc(Nc4ccc(OCc5cccc(F)c5)c(Cl)c4)c3c2)s1 (configuration not stated) | 250 °C
COC(=O)Cc1ccsc1-c1ccccc1 | 29 to 31 °C
NC(=O)c1cc([N+](=O)[O-])ccc1C=Cc1ccccc1 | 270 °C
CC(C)(COCc1cccc(Oc2ccccc2)c1)c1ccc(O)cc1 | 69.2 to 70 °C
Cn1cc(-c2ccccc2)c(=O)c(-c2ccc(-c3ccccc3)cc2)c1 | 186 to 190 °C
CC1(C)CCC(C)(C)c2cc(-c3cc4ccc(C(=O)O)cc4s3)c(Br)cc21 | 272 to 275 °C
CCOC(=O)c1ccc(NO)cc1 | 72.5 °C
CC(C)(C)Oc1ccc(S(=O)(=O)N2c3ccccc3C[C@H]2C(=O)NCCOc2ccc(CC(=O)O)cc2)cc1 | 68 to 71 °C
O=C(O)c1cccc(Oc2ccc(C(=O)c3ccc(F)cc3)cc2)c1 | 158 to 160 °C

SMILES | melting point
COc1ccc(Cc2c(C)c3c(N)nc(N)nc3[nH]c2=O)cc1OC | 346 to 348 °C
O=C(NC1CC1)c1cccc(-c2cccc3oc(Cc4cccc(C(F)(F)F)c4)cc23)c1 | 120 to 121 °C
COc1ccc(N2C(=O)C3=C(SCCO3)C2=O)nn1 | 157 °C
CCNC(=O)c1ccc(COC(=O)c2ccc(OC)c(C(C)(C)C)c2)cc1 | 107 to 108 °C
O=C(O)COc1ccc(C(=O)CCN2CCN(c3ccncc3)CC2)cc1 | 238 to 239 °C
O=C(O)CNC(=O)COc1nc(F)c(Cl)cc1Cl | 155 to 157 °C
COc1ccc2c(c1OC)CCC(C#N)C2C#N (configuration not stated) | 107 to 108 °C
CCCCCCCCCCCCCCCC(=O)N[C@@H](CSC[C@H](O)[C@H](O)CO)C(=O)O | 76 to 76.5 °C
COc1cccc(CN2CCCCC2C(=O)O)c1 (configuration not stated) | 186 to 187 °C
O=C(Nc1ccc(N2CCC2)nc1)c1cc2cc(C(F)(F)F)cnc2n1Cc1cccc(F)c1 | 243 to 244 °C
Cn1c(C(F)(F)F)cc(=O)n(-c2cc(OC(=O)NC3CCCCC3)c(Cl)cc2F)c1=O | 171 to 173 °C
Cc1cc(F)ccc1-c1ccc(S(=O)(=O)N2c3ccccc3CC2C(=O)O)cc1 (configuration not stated) | 62 to 67 °C
O=C(CCC1CCC(=O)N1)Nc1ccncc1 (configuration not stated) | 187 to 188 °C
CCOC(=O)Cc1nc(-c2ccc(F)cc2)oc1-c1ccco1 | 110 to 111 °C
COC(=O)CN1CCN(CC(=O)OC)[C@@H](C(N)=O)[C@H]1C(N)=O | 172 to 173 °C
C=Cc1nc(C(C)C)c(Sc2cc(Cl)cc(Cl)c2)n1C | 124 to 125 °C
COC(=O)C(c1ccccc1)N1CCC(c2ccc(NC(=O)c3ccccc3-c3ccc(C(F)(F)F)cc3)cc2)CC1 (configuration not stated) | 138 °C
COc1ccc(Cl)c(Oc2c(CO)nc(N3CCOCC3)nc2NS(=O)(=O)c2ccc(C(C)C)cn2)c1 | 105 °C
O=C1OC(COc2ccc(CCCO)cc2)CN1c1ccc(Cl)cc1 (configuration not stated) | 119 to 120 °C
CCCc1nc(N2CCc3ccccc3CC2)c(C#N)c(=O)[nH]1 | 191 to 193 °C
Cc1cnc(CSc2nc3cc(OC(F)(F)C(F)F)ccc3[nH]2)c(Cl)c1N1CCCCC1 | 170 to 171 °C
O=S1(=O)NC(C2CCCCC2)Nc2ccc(S(=O)(=O)N3CCOCC3)cc21 (configuration not stated) | 262 to 264 °C
Cc1c(-c2cc(Cl)cc(Cl)c2)ccc2nc(N)nc(N)c12 | > 250 °C
CC1(C)OC(C(F)(F)F)Nc2ccc(-c3cc(F)cc(C#N)c3)cc21 (configuration not stated) | 102 to 103 °C
COC(=O)c1ccc(-c2nc(CCl)c(C)o2)cc1 | 130 to 131 °C

SMILES | melting point
Cn1nc(C(F)(F)F)c(CS(=O)(=O)C2=NOC(C)(C)C2)c1OC1CCCC1 | 113 to 114 °C
CCc1cc(=O)c2cc(CCO)ccc2o1 | 75 to 76 °C
Nc1ccn([C@@]2(O)CC=C(P(=O)(O)O)O[C@@H]2CO)c(=O)n1 | 290 °C
CC1(C)C(=O)NCCN1C(=O)C(N)Cc1ccccc1 (configuration not stated) | 70 to 73 °C
Nc1cc(-n2cc(C(=O)O)c(=O)c3cc(F)c(Cl)nc32)c(F)cc1F | > 270 °C
C[C@H]1c2ccccc2N(C(=O)CCl)[C@H]1C (relative stereo) | 83 to 84 °C
CC(=O)Nc1c(C(=O)c2ncccc2C)[nH]c2cc(Cl)ccc12 | 173 to 175 °C
COC(=O)c1ccc2cc(-c3ccc(C(C)(C)C)cc3)oc2c1 | 148 °C
Cc1ccc(-c2ccc3c(c2)C=C(C(=O)Nc2ccc(CN4CCCCC4)cc2)C3)cc1 | 219 to 220 °C
CC(C)OC(=O)C=Cc1cc(N)ccc1Cl | 98 to 100 °C
CCS(=O)(=O)c1cc(C(C)(C)C)cc(C=O)c1O | 92 to 93 °C
CC(C)(CCl)C(=O)N(O)Cc1ccccc1 | 90 to 92 °C
CC(C)(C)OC(=O)N1CCN2C(=O)N(c3ccc(C#N)c4ccccc34)C(=O)C2C1 (configuration not stated) | 222 to 224 °C
COC(=O)c1ccc(OCCNC(=O)C2Cc3ccccc3N2S(=O)(=O)c2ccc(-c3cc(C(F)(F)F)ccc3Cl)cc2)cc1F (configuration not stated) | 84 to 85 °C
O=C(NC(=O)c1c(F)cccc1F)Nc1cc(Cl)c(OC(F)(F)C(F)(F)F)cc1Cl | 178 to 179 °C
Cc1cc(Cl)ccc1N=c1ssnc1Cl | 130 to 131 °C
CCn1ncnc1COc1nn2c(-c3ccccc3F)nncc2c1-c1ccncc1 | 214 to 217 °C
COc1cc2sc(C=O)cc2c(Cl)c1OC | 164 to 165 °C
CS(=O)(=O)c1ccc(-c2cnn(-c3ccsc3)c(=O)c2-c2ccc(F)cc2)cc1 | 200 to 202 °C
COC(=O)c1ccc(-c2cc(-c3ccccc3)on2)cc1 | 201 to 202 °C
O=C1OC(CI)CN1c1cc(F)c(-c2cccnc2)c(F)c1 (configuration not stated) | 133 to 134 °C
CC1(C)CN(CC=CC(=O)Nc2cc3c(Nc4ccc(F)c(Cl)c4)ncnc3cc2OCC2CC2)CC(=O)O1 | 140 to 142 °C
CCN1C(=O)C(C(=O)Nc2cccc(C(=O)Nc3ccc(Br)cc3)c2)c2cc(C(C)=O)ccc21 (configuration not stated) | 117 to 120 °C
CC(=O)c1ccc(-c2ccc(CC(=O)NC3CCN(Cc4ccc(Cl)c(Cl)c4)CC3)cc2)cc1 | 184 °C
CC1N=C(c2ccccc2F)c2cc(C#N)ccc2NC1=O (configuration not stated) | 216 °C

SMILES | melting point
CSc1cc(N)ccc1[N+](=O)[O-] | 178 to 182 °C
CCOP(=O)(OCC)c1ccc2c(c1)[C@@H](n1ccccc1=O)[C@H](O)C(C)(C)O2 (relative stereo) | 130 °C
Cc1ccc2c(c1Cl)C(=O)N(C(C)(C(N)=O)C(C)C)C2=O (configuration not stated) | 215 to 218 °C
COc1ccc(N(c2ccc(-c3ccc(N(c4ccc(OC)cc4)c4cccc(C(F)(F)F)c4)cc3)cc2)c2cccc(C(F)(F)F)c2)cc1 | 134 °C
CC1(N2Cc3cc(CNC(=O)Cc4ccc(Cl)cc4)ccc3C2=O)CCC(=O)NC1=O (configuration not stated) | 230 to 232 °C
CC(=O)OC1Oc2ccc(C#N)cc2C1(C)C (configuration not stated) | 138 to 140 °C
C=CCOc1ccc(Cl)cc1NC(=O)Cc1ccc(OC)c(OC2CCCC2)c1 | 75 to 76.5 °C
COc1ccc(-c2[nH]nc3c2C(=O)c2c(NC(=O)CN4CCOCC4)cccc2-3)cc1 | 295 °C
COC(=O)C1=C(O)c2c(c3cc(OC)ccc3n2C)S(=O)(=O)N1C | 200 to 201 °C
COC(=O)c1cccc(N2CC(C)=CC2=O)c1 | 87 to 89 °C
Cn1c(=O)c2c(ncn2COC(=O)C(C)(C)C)n(C)c1=O | 108 to 110 °C
COc1ccc(Cc2nc3cccc([N+](=O)[O-])c3o2)cc1OC1CCCC1 | 95 to 98.5 °C
COc1ccc(C(=O)Nc2nc3cc4c(cc3[nH]2)NC(=O)C4(C)C)cc1 | > 300 °C
CSCCCOc1nc(-c2ccc(F)cc2C)c2ccc(=O)n(-c3c(F)cccc3F)c2n1 | 127 to 128 °C
O=C1c2ccccc2C2(O)Oc3c(ccc4c3CCCC4)C12O (configuration not stated) | 252 to 254 °C
CCn1ncc2c(Cl)c(C#N)cnc21 | 100 to 102 °C
CN1C(NCc2ccccc2)=Nc2ccncc2S1(=O)=O | 142 to 146 °C
Cc1ccc2c(c1)c(Cl)c(C#N)c(=O)n2Cc1ccc(F)cc1 | 206 °C
COc1ccc(CCN2CCN(C(=O)c3ccc(N(CCOC(C)C)C(=O)CCl)cc3)CC2)cc1 | 139 to 140 °C
COc1cc(N(C)C)c(Cl)cc1C(=O)NCC1CN(CCCOc2ccc(Cl)cc2)CCO1 (configuration not stated) | 128 to 130 °C
CC(=O)c1cc(CC(C)O)c(OCCCCC#N)cc1O (configuration not stated) | 86 to 88 °C
Nc1ccc(C(=O)N2Cc3cccn3Cc3ccccc32)cc1 | 166 to 168 °C
